Results reported in patent US7115749B2, “Substituted 5-oxo pyrazoles and [1,2,4]triazoles as antiviral agents” (priority 2004, dated 2006).

molecular target: HCV RNA-dependent RNA polymerase NS5B (Δ21) (Hepatitis C virus genotype 1b, UniProt P26663); assay: Assay for HCV RNA-dependent RNA polymerase activity (SPA, [3H]-GTP incorporation); assay type: biochemical
Experimental: Assay for HCV RNA-dependent RNA Polymerase Activity
Inhibitory activity of the present compounds against HCV RNA-dependent RNA polymerase was assayed according to the methods disclosed in U.S. Patent Application U.S.2004/038993, content of which is incorporated herein by reference; and those described in Ferrari, E.; Wright-Minogue, J.; Fang, J. W. S.; Baroudy, B. M.; Lau, J. Y. N.; Hong, Z. J. Virol. 1999, 73, 1649.
Briefly, 50 μl reactions containing 20 mM HEPES (pH 7.3), 7.5 mM DTT, 20 units/ml RNasIN, 0.5 ug/ml biotinylated oligoG12, 5 μg/ml polyC, 5 μM GTP, 20 μCi/ml [^3H]-GTP, 10 mM MgCl2, 60 mM NaCl, 100 μg/ml BSA, and 50 nM NS5B (Δ21) were incubated at room temperature for three hours in 96-well plates with or without test compounds. Assay was terminated by the addition of 50 μl 10 mg/ml streptavidin-coated SPA beads supplemented with 100 mM EDTA, and the incorporation of labeled GTP determined by a TopCount Scintillation Counter. IC50 values were calculated from single experiments using 11 serial 2-fold dilutions (0.05–50 μM), and data were considered reliable only when the IC50 value of a positive internal control was within standard deviation range.

Sequence of HCV RNA-dependent RNA polymerase NS5B (Δ21) (P26663 2420-2989, stated change not applied): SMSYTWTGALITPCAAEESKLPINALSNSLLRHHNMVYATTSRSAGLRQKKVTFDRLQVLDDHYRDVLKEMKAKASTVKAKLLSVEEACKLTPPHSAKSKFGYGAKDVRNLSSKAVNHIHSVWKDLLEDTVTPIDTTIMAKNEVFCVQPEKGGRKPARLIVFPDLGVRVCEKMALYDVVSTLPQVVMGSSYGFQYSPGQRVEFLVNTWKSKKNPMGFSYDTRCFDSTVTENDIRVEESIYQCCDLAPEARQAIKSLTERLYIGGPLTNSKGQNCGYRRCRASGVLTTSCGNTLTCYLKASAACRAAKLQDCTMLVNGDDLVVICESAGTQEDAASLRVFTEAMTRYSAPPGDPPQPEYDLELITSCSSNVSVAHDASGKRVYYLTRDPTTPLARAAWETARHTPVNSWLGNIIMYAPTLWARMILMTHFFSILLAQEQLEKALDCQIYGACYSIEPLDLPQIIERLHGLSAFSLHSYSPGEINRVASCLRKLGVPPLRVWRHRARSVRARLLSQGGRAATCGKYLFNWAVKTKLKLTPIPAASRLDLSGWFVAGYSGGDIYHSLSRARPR

Q: For `O=C(Cn1nc(C(=O)O)cc1OCc1ccccc1F)N[C@H]1CCCC[C@@H]1OCc1ccccc1` [Compound 14], which IC50 is on record?
A: > 12.5 µM

Q: Which IC50 does the source give for `O=C(Cn1nc(C(=O)O)cc1OCc1ccccc1-c1cccc(Cl)c1)N[C@H]1CCCC[C@@H]1OCc1ccccc1` [Compound 53] here?
A: 0.78 µM

Q: Which IC50 does the source give for `CC(C)(C)COc1cc(C(=O)O)nn1CC(=O)N[C@H]1CCCC[C@@H]1OCc1ccccc1` [Compound 59] here?
A: > 12.5 µM

Q: Which IC50 does the source give for `O=C(Cn1nc(C(=O)O)cc1OCc1ccc(F)cc1)N[C@H]1CCCC[C@@H]1OCc1ccccc1` [Compound 21] here?
A: 13 µM

Q: For `O=C(Cn1nc(C(=O)O)cc1OCc1ccccc1)N[C@H]1CCCC[C@@H]1OCc1ccccc1` [Compound 1], which IC50 is on record?
A: 43 µM

Q: How did the IC50 turn out when `Cc1ccc(COc2cc(C(=O)O)nn2CC(=O)N[C@H]2CCCC[C@@H]2OCc2ccccc2)cc1F` [Compound 22] was run?
A: 3 µM

Q: How did the IC50 turn out when `O=C(Cn1nc(C(=O)O)cc1OCc1ccccc1-c1ccccc1)Nc1ccccc1OCc1ccccc1` [Compound 7] was run?
A: 11 µM
